Measurements reported in patent US9056874B2, “Complement pathway modulators and uses thereof” (NOVARTIS AG, priority 2012, dated 2015).

target: factor B (Homo sapiens, UniProt P00751); assay: factor B inhibition assay of Biological Example 1; assay type: biochemical; design: CVF-Bb complex prepared from purified cobra venom factor (1 μM), recombinant human complement factor B; made in house; host or cells: drosophila cells (factor B); E. coli (factor D used to form the complex); conditions: IC50 (nM), assay of Biological Example 1 (Table 1)
Sequence (P00751 260-764 limits assumed): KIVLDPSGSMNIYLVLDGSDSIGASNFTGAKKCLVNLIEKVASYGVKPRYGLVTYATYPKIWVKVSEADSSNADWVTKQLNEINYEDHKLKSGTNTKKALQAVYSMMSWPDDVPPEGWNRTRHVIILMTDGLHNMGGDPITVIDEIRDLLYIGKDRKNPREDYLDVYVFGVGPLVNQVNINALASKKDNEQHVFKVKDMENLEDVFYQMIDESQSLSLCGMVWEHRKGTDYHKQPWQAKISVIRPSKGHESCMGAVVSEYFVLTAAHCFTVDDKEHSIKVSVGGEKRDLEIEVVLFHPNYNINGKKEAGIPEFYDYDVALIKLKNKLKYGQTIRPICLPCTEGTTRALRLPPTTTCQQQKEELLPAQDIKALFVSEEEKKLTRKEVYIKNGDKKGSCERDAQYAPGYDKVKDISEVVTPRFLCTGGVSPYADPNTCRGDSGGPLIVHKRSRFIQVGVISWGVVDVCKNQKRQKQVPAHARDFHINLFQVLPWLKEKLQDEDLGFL
Sequence (Q91132 23-649 partner limits assumed): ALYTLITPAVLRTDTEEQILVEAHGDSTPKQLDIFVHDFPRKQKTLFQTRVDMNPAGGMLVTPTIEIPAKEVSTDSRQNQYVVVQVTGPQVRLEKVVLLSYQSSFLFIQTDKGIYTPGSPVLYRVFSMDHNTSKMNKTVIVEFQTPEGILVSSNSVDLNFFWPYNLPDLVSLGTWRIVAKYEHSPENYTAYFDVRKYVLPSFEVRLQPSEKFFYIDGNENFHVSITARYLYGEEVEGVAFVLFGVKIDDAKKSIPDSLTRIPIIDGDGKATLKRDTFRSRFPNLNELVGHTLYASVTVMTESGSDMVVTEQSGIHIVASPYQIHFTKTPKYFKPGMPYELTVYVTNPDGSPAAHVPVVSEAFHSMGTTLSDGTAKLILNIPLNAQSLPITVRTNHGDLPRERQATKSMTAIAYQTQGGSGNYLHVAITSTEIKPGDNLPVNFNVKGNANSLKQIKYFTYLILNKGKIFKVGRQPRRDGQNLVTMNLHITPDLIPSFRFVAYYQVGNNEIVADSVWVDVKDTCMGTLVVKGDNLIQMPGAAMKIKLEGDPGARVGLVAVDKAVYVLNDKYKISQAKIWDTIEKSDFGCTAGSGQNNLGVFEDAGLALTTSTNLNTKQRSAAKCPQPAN
Sequence (Q91132 733-984 partner limits assumed): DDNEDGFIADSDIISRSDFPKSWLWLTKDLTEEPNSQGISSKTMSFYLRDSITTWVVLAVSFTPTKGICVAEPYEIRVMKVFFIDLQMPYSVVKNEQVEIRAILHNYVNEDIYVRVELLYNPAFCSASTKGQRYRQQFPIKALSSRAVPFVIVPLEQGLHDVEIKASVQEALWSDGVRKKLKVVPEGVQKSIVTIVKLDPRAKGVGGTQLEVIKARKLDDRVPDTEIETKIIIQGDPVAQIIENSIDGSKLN
Sequence (Q91132 1264-1642 partner limits assumed): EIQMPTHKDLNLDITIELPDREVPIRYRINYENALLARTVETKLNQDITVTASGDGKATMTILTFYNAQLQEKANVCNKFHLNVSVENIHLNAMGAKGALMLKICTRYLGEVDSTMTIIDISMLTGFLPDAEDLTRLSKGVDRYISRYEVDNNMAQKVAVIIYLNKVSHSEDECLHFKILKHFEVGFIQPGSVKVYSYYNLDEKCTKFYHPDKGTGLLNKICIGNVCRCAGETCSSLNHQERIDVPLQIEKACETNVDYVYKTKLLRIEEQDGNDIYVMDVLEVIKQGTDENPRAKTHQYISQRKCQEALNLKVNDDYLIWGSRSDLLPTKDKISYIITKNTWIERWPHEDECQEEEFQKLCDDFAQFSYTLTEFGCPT

SMILES | IC50 [nM]
Cc1cc(CC(C)C)c(C(C)(O)c2nc3cc(C#N)ccc3[nH]2)c2cc[nH]c12 (single isomer, unassigned; (+)) [79-D b) (+), (+)-2-(1-hydroxy-1-(5-isobutyl-7-methyl-1H-indol-4-yl)ethyl)-1H-benzo[d]imidazole-5-carbonitrile] | 2240
Cc1cc(Cl)c(C(C)(O)c2nc3cc(C#N)ccc3[nH]2)c2cc[nH]c12 (single isomer, unassigned; (+)) [79-E b) (+), (+)-2-(1-(5-chloro-7-methyl-1H-indol-4-yl)-1-hydroxyethyl)-1H-benzo[d]imidazole-5-carbonitrile] | 1120
CCc1cc(C)c2[nH]ccc2c1C(O)(c1nc2cc(C#N)ccc2[nH]1)C(F)(F)F (single isomer, unassigned; (+)) [80-C b) (+), (+)-2-(1-(5-ethyl-7-methyl-1H-indol-4-yl)-2,2,2-trifluoro-1-hydroxyethyl)-1H-benzo[d]imidazole-5-carbonitrile] | 380
Cc1cc(C)c2[nH]ccc2c1C(O)(c1nc2cc(C#N)ccc2[nH]1)C(F)(F)F (single isomer, unassigned; (+)) [80-D b) (+), (+)-2-(1-(5,7-dimethyl-1H-indol-4-yl)-2,2,2-trifluoro-1-hydroxyethyl)-1H-benzo[d]imidazole-5-carbonitrile] | 4330
Cc1cc(C2CC2)c(C(O)(c2nc3cc(C#N)ccc3[nH]2)C(F)(F)F)c2cc[nH]c12 (single isomer, unassigned; (+)) [80-E b) (+), (+)-2-(1-(5-cyclopropyl-7-methyl-1H-indol-4-yl)-2,2,2-trifluoro-1-hydroxyethyl)-1H-benzo[d]imidazole-5-carbonitrile] | 180
Cc1cc(C(C)C)c(C(O)(c2nc3cc(C#N)ccc3[nH]2)C(F)(F)F)c2cc[nH]c12 (single isomer, unassigned; (+)) [80-F b) (+), (+)-2-(2,2,2-trifluoro-1-hydroxy-1-(5-isopropyl-7-methyl-1H-indol-4-yl)ethyl)-1H-benzo[d]imidazole-5-carbonitrile] | 690
COC(C)(c1nc2cc(C#N)ccc2[nH]1)c1c(C)cc(C)c2[nH]ccc12 (single isomer, unassigned; (+)) [84-B b) (+), (+)-2-(1-(5,7-dimethyl-1H-indol-4-yl)-1-methoxyethyl)-1H-benzo[d]imidazole-5-carbonitrile] | 710
CCc1cc(C)c2[nH]ccc2c1C(C)(OC)c1nc2cc(C#N)ccc2[nH]1 (single isomer, unassigned; (+)) [84-C b) (+), (+)-2-(1-(5-ethyl-7-methyl-1H-indol-4-yl)-1-methoxyethyl)-1H-benzo[d]imidazole-5-carbonitrile] | 150
CCc1cc(C)c2[nH]ccc2c1C(OC)(c1nc2cc(C#N)ccc2[nH]1)C(F)(F)F (single isomer, unassigned; (+)) [84-D b) (+), (+)-2-(1-(5-ethyl-7-methyl-1H-indol-4-yl)-2,2,2-trifluoro-1-methoxyethyl)-1H-benzo[d]imidazole-5-carbonitrile] | 460
COC(C)(c1nc2cc(C#N)ccc2[nH]1)c1c(CC(C)C)cc(C)c2[nH]ccc12 (single isomer, unassigned; (+)) [84-E b) (+), (+)-2-(1-(5-isobutyl-7-methyl-1H-indol-4-yl)-1-methoxyethyl)-1H-benzo[d]imidazole-5-carbonitrile] | 1200
Cc1cc(C)c2[nH]ccc2c1C(N)c1nc2ccc(C#N)cc2[nH]1 (single isomer, unassigned; (+)) [95-B b) (+), (+)-2-(amino(5,7-dimethyl-1H-indol-4-yl)methyl)benzo[d]imidazole-5-carbonitrile] | 2140
CCc1cc(C)c2[nH]ccc2c1C(N)c1nc2cc(C#N)ccc2[nH]1 (single isomer, unassigned; (+)) [96-C b) (+), (+)-2-(amino(5-ethyl-7-methyl-1H-indol-4-yl)methyl)-1H-benzo[d]imidazole-5-carbonitrile] | 2210
